Assay results: patent publication EP4781986A1, “PHARMACEUTICAL COMPOSITION HAVING IMPROVED PHARMACOKINETIC PROPERTIES” (Sichuan Purity Pharmaceutical Co., Ltd., priority 2023, dated 2025)

Key:
[1] = stability test in liver microsomes (monkey); type: in vitro ADME; details: Monkey liver microsomes
Description: (§1) The stability of the compound of the present invention in liver microsomes of rat, monkey and human was determined. Tested compounds of the present invention were the compounds in Examples 6 and 8 , and a control drug was Zavegepant.
(§2) 3.2 An appropriate amount of liver microsome solution was transferred into a 1 mL 96-deep-well plate, added with a tested drug liquid (or a probe substrate solution), and pre-incubated in a thermal mixer at 37°C for 5 minutes. Two parts of mixed solutions were taken out from the system and added with 1×PBS to replace NADPH, and the mixed solutions were taken out at 0 and 60 minutes respectively, and added with methanol (containing an internal standard) to terminate the reaction. In the remaining mixed system, each well was added with NADPH to start the reaction. In the tested substance group, mixed solutions were taken out from the system at 0, 5, 15, 30, 45 and 60 minutes, and in the control group, mixed solutions were taken out from the system at 0, 30 and 60 minutes, and the mixed solutions were added methanol (containing an internal standard) to terminate the reaction. All samples of the terminated reaction were mixed evenly and centrifuged in a centrifuge at 3800 rpm for 15 minutes, and the supernatant was taken for LC-MS/MS analysis.
(§3) A peak area was determined by an extracted ion chromatogram. A slope value k was determined by linear regression of a remaining percentage of a parent drug relative to a natural logarithm of an incubation time curve. According to the slope, in-vitro half-life periods (t1/2) were respectively calculated, and in-vitro intrinsic clearance rates (CLint, represented by µL/min/mg protein) were calculated. Calculation formulas were as follows: t1/2 = ln2/k = 0.693/k; and CLint = 0.693/t1/2 /liver microsome protein concentration [formula]

Plasma of SD rat = test: plasma protein binding rate test, equilibrium dialysis (rat); type: in vitro ADME; details: 1 µM, 37°C, 6 hours
Description: (§4) Protein binding rates of the compound of the present invention in plasma of rat, monkey and human were determined by an equilibrium dialysis method. Tested compounds of the present invention were the compounds in Examples 6 and 8.
(§5) 3.1 A dry dialysis membrane was rinsed with ultrapure water for 2-3 times, and then soaked in a phosphate buffer for 1 hour for later use. Polytetrafluoroethylene module was soaked in 20% ethanol for 30 minutes, and then surface moisture was dried with dust-free paper for later use. The pretreated dialysis membrane was assembled into a dialysis plate according to the product specification, and one side (receptor compartment) of an osmotic membrane in each dialysis well was added with 100 µL of receptor fluid (100 mM phosphate buffer solution plus 0.002% Tween 80).
(§6) 3.2 The plasma was put into a centrifuge tube, a working solution of a tested substance was added into the plasma, wherein a final concentration was 1 µM, and the mixture was turned upside down and mixed evenly (this step was carried out in ice bath). 20 µL of drug-containing plasma each was taken, and was respectively transferred to a 96-well sample plate according to two parts in parallel, and stored in a refrigerator at -20°C as a T0 sample.
(§7) 3.3 Another 100 µL of the above drug-containing plasma was transferred to the other side (sample compartment) of the membrane in the dialysis device according to two parts in parallel, and incubated under vibration at a constant temperature of 37°C for 6 hours. […]
(§8) A plasma protein binding rate and a recovery rate of the compound in plasma were calculated by the following formulas: dissociation percentage (%) = CB /CA; [formula] plasma protein binding rate (fb%) = 1−dissociation percentage (%); [formula] recovery rate (%) = (CB+CA)/CT0 [formula] wherein CB was a concentration of the compound in the receptor fluid after equilibrium dialysis; CA was a concentration of the compound in the drug-containing plasma after equilibrium dialysis; and CT0 was an initial concentration of the compound in plasma.

Plasma of human = test: plasma protein binding rate test, equilibrium dialysis (human); type: in vitro ADME; details: 1 µM, 37°C, 6 hours
Description: as §4, §5, §6, §7, §8

[2] = system: Plasma of cynomolgus monkey; test: plasma protein binding rate test, equilibrium dialysis (monkey); type: in vitro ADME; details: 1 µM, 37°C, 6 hours
Description: as §4, §5, §6, §7, §8

[3] = stability test in liver microsomes (human); type: in vitro ADME; details: Human liver microsomes, 60 min
Description: as §1, §2, §3

[4] = PK properties in SD rats with different concentrations of alkyl glycoside (0.05% and 5% DDM); type: in vivo; details: for Tmax(DDM 0.05%)/ Tmax(DDM 0%): 0.05% DDM vs without DDM; for Tmax(DDM 5%)/ Tmax(DDM 0%): 5% DDM vs without DDM; for Tmax: rat, in vivo
Excerpt: During preparation of a test sample in the Test Example 7, drug solution groups with 0.05% and 5% dodecyl-β-D-maltosides (DDM) were established and prepared in parallel, so as to compare and observe changes of PK properties in rats administered with the drug solution groups with two different concentrations of dodecyl-β-D-maltosides (DDM).

[5] = intranasal, 0.05% alkyl glycoside vs without
[6] = intranasal, 5% alkyl glycoside vs without

| Tmax ([4]; Sprague-Dawley, inhaled or intranasal, 0.05% alkyl glycoside) | Tmax ([4]; Sprague-Dawley, inhaled or intranasal, 5% alkyl glycoside) | Tmax ([4]; Sprague-Dawley, inhaled or intranasal, without alkyl glycoside) | Structure (SMILES) | CLint [1] | % remaining (60 min) [1] | fb (%) (Plasma of SD rat) | fb (%) (Plasma of human) | fb (%) [2] | % remaining (60 min) [3] | Tmax(DDM 0.05%)/ Tmax(DDM 0%) ([4]; intranasal) | Tmax shortened by [4, 5] | Tmax(DDM 5%)/ Tmax(DDM 0%) ([4]; intranasal) | Tmax shortened by [4, 6] | Tmax ([4]; intranasal, 0.05% alkyl glycoside) | Tmax ([4]; intranasal, 5% alkyl glycoside) | Tmax ([4]; intranasal, without alkyl glycoside) |
| --- | --- | --- | --- | --- | --- | --- | --- | --- | --- | --- | --- | --- | --- | --- | --- | --- |
| – | – | – | Cc1cc(C[C@@H](NC(=O)N2CCC(c3cc4c([nH]c3=O)SCCC4)CC2)C(=O)N2CCN(C3CCN(C)CC3)CC2)cc2cn[nH]c12 [Example 6, (R)-N-(3-(7-methyl-1H-indazole-5-yl)-1-(4-(1-methylpiperidine-4-yl)piperazine-1-yl)-1-oxopropan-2-yl)-4-(7-oxo-3,4,7,8-tetrahydro-2H-thiopyrano[2,3-b]pyridine-6-yl)piperidine-1-formamide] | 0.8 µL/min/mg | 96.9% | 90.0% | 76.7% | 61.3% | 131% | 25.0% | 75% | 8.3% | 91.7% | 15 min | 4.98 min | 60 min |
| 10 min | 4.98 min | 12 min | Cc1cc(C[C@@H](NC(=O)N2CCC(c3cc4c([nH]c3=O)SCC4)CC2)C(=O)N2CCN(C3CCN(C)CC3)CC2)cc2cn[nH]c12 [Example 8, (R)-N-(3-(7-methyl-1H-indazole-5-yl)-1-(4-(1-methylpiperidine-4-yl)piperazine-1-yl)-1-oxopropan-2-yl)-4-(6-oxo-2,3,6,7-tetrahydrothieno[2,3-b]pyridine-5-yl)piperidine-1-formamide] | – | 61.6% | 69.4% | 64.1% | 47.7% | 85.8% | 79.9% | 20% | 39.7% | 60% | – | – | – |
